Measured values: US4590202A, “N-(2-imidazolidinylidene)-5H-dibenzo[a,d]cyclohepten-5-amine compounds and α2 -adrenergic antagonistic uses thereof” (Merck & Co., Inc., priority 1984, dated 1986)

How the values were obtained:
[1] = test system: α1 -adrenoreceptor; assay: neurogenic contractions of rat vas deferens (α1-adrenergic activity); settings: electrically stimulated rat vas deferens
Method: (§1) In such determination, vas deferens of rat is suspended under tension between two platinum electrodes of an organ bath containing Tyrode's solution and contractile responses to electrical stimulation recorded. Agonist drug is added and EC50 values determined. After wash out, an antagonist drug is added and after a suitable period of contact with the tissue, the EC50 values of agonist in presence of antagonist are similarly determined.
(§2) These properties indicate suitability for use as an antidepressant.

[2] = test system: α2 -adrenoreceptor; assay: neurogenic contractions of rat vas deferens (α2-adrenergic activity); settings: electrically stimulated rat vas deferens
Method: as §1, §2

[3] = test system: vascular smooth muscle; assay: inhibition of calcium induced contraction of vascular smooth muscle; design: species or system male Sprague-Dawley rats; settings: 10^-7 M; contraction induced by 1.0 mM calcium chloride in depolarized rat vascular smooth muscle
Method: The property may be observed in a test in which segments of vascular smooth muscle obtained from male Sprague-Dawley rats are suspended in physiological salt solution in a tissue bath instrumented for recording contractions. After the tissue has been equilibrated, washed in calcium-free physiological salt solution and then depolarized, 1.0 mM calcium chloride is re-added to induce contraction. After the contraction has reached a plateau, tissues are washed and a test compound or vehicle is added to determine the effect on a second contraction achieved by the above cyclic protocol. From measuring the initial contraction as well as the second contraction in the presence of the test compound, the extent of inhibition may be calculated.

Structure (SMILES)	antagonism of the response to methoxamine ([1]; agonist methoxamine)	effect on neurogenic contractions of the rat vas deferens when given alone ([1]; compound alone)	antagonism of the inhibition of contractions produced by clonidine ([2]; agonist clonidine)	inhibition at 0.1 µM [3]	effect on neurogenic contractions of the rat vas deferens ([2]; antagonism by rauwolscine)
Brc1ccc2c(c1)C(N=C1NCCN1)c1ccccc1C=C2.I (stereo not drawn) [N-(2-Imidazolidinylidene)-3-bromo-5H-dibenzo[a,d]cyclohepten-5-amine Hydroiodide]	antagonized the response to methoxamine with a similar order of potency	enhanced the neurogenic contractions of the rat vas deferens	antagonized the inhibition of contractions produced by clonidine	40%	
C1=Cc2ccccc2C(N=C2NCCN2)c2ccccc21.I [N-(2-Imidazolidinylidene)-5H-dibenzo[a,d]cyclohepten-5-amine Hydroiodide]				56%	inhibit neurogenic contractions of the rat vas deferens which was antagonized by rauwolscine
